Data from patent US10253002B2, “Compounds and methods of treating infections” (Neoculi Pty Ltd., priority 2013, dated 2019).

Legend:
[1] = system: DNA synthesis in S. aureus ATCC 29213; assay: Macromolecular synthesis assay: DNA synthesis ([3H] thymidine); format: cell-based, Staphylococcus aureus
Description: (§1) Cells were grown at 35° C. overnight on Trypticase Soy agar. A colony from the plate was used to inoculate 10 ml of Mueller Hinton broth II (MHBII), and the culture was grown to early exponential growth phase (OD600==0.2 to 0.3) while incubating in a shaker at 35° C. and 200 rpm.
When cells reached early exponential phase, 100 μL of culture was added to triplicate wells containing various concentrations of test compound or control antibiotics (5 μL) at 20× the final concentration in 100% DMSO. A 5% DMSO treated culture served as the “no drug” control for all experiments. Cells were added in MHBII at 105% to account for the volume of drug added to each reaction or in M9 minimal medium for protein synthesis reactions. Following 15 min incubation at room temperature, either [^3H] thymidine (DNA synthesis), [^3H] uridine (RNA synthesis) or [^3H] leucine (protein synthesis) was added at 0.5-1.0 μCi per reaction, depending on the experiment. Reactions were allowed to proceed at room temperature for 15-30 min and then stopped by adding 12 μL of cold 5% trichloroacetic acid (TCA) or 5% TCA/2% casamino acids (protein synthesis only). Reactions were incubated on ice for 30 min and the TCA precipitated material was collected on a 25 mm GF/A filter. After washing three times with 5 ml of cold 5% TCA, the filters were rinsed two times with 5 mL 100% ethanol, allowed to dry, and then counted using a Beckman LS3801 liquid scintillation counter.

[2] = system: cell wall synthesis in S. aureus ATCC 29213; assay: Macromolecular synthesis assay: cell wall synthesis ([14C]N-acetylglucosamine); format: cell-based, Staphylococcus aureus
Description: as §1
Bacterial cells in early exponential growth phase were transferred to M9 minimal medium and added to 1.5 mL eppendorf tubes (100 μL/tube) containing various concentrations of test compound or control antibiotics (5 μL) at 20× the final concentration in 100% DMSO as described above. Following a 5 min incubation at 37° C., [^14C]N-acetylglucosamine (0.4 μCi/reaction) was added to each tube and incubated for 45 min in a 37° C. heating block. Reactions were stopped through the addition of 100 μL of 8% SDS to each tube. Reactions were then heated at 95° C. for 30 min in a heating block, cooled, briefly centrifuged, and spotted onto pre-wet HA filters ([…]). After washing three times with 5 mL of 0.1% SDS, the filters were rinsed two times with 5 ml of deionized water, allowed to dry, and then counted using a Beckman LS3801 liquid scintillation counter.

[3] = system: lipid synthesis in S. aureus ATCC 29213; assay: Macromolecular synthesis assay: lipid synthesis ([3H] glycerol); format: cell-based, Staphylococcus aureus; conditions: at the MIC
Description: as §1
Bacterial cells were grown to early exponential growth phase in MHBII broth and added to 1.5 mL eppendorf tubes (in triplicate) containing various concentrations of test compound or control antibiotics as described above. Following a 5 min incubation at room temperature, [^3H] glycerol was added at 0.5 μCi per reaction.
Reactions were allowed to proceed at room temperature for 15 min and then stopped through the addition of 375 μL chloroform/methanol (1:2) followed by vortexing for 20 seconds after each addition. Chloroform (125 μL) was then added to each reaction, vortexed, followed by the addition of 125 μL dH2O and vortexing. Reactions were centrifuged at 13,000 rpm for 10 min, and then 150 μL of the organic phase was transferred to a scintillation vial and allowed to dry in a fume hood for at least 1 hr. Samples were then counted via liquid scintillation counting.

Staphylococcus aureus = assay: Mouse skin wound infection model, topical treatment; format: in vivo, mice; conditions: 14 treatments
Description: Preliminary studies prior to the conduct of the current study established a new method of skin infection arising from a detailed study of the models mentioned above. Briefly, study mice are anaesthetised, a patch of dorsal skin is clipped to reveal the skin and a circular area of skin is removed with a hand held punch, leaving a wound on the dorsum with a central cavity. The wound is infected with a known number of the challenge organism. Approximately four to six hours after infection, the wound is either treated topically with a vehicle formulation or an active formulation. The infected skin wound is retreated every 12 hours for a total of 14 treatments. Mice are humanely euthanased, the area of the original infected wound is dissected and removed and its bacterial content quantified by standard microbiologic tests. In this way, the change in bacterial concentration due to treatment with the active formulation can be readily determined by examining the reduction in bacterial burden compared with the vehicle control. Fresh cultures of bacteria (Staphylococcus aureus) were grown on Sheep Blood Agar at 37° C. for 16-18 hours. A few typical colonies were selected and suspended in 10 ml of Tryptic Soy Broth and incubated overnight in a shaking incubator (240 rpm) at 37° C. The overnight suspension was vortexed and diluted (1:100) in fresh Tryptic soy broth (100 μl [0.1 ml] in 9.9 ml broth). The fresh suspension was incubated for 3 hours in a shaking incubator (as above) in order to obtain mid-logarithmic phase bacteria. Bacteria were pelleted through centrifugation at 7,500 rpm for 10 mins. Broth supernatant was removed and bacteria suspended in 10 ml Phosphate Buffered Saline (PBS). These steps were repeated a further two times. The density of the suspension was checked by measuring absorbance at 600 nm, using a spectrophotometer with saline as a blank, to confirm the target density at a reading of approximately 0.100, consistent with a bacterial density of 2.5×10^7 CFU/ml. The suspension was placed into a rack placed into a lockable transport box with an ice brick to maintain refrigeration during transport, followed by storage in cool room upon arrival at the mouse skin infection laboratory. Final suspension was mixed thoroughly before inoculating the skin wounds created in mice. […] Eyes of each anaesthetised mouse were covered with veterinary eye lubricant in order to prevent corneal dehydration. Each mouse removed from induction chamber and placed onto surgical area, in front of individual aesthetic nose cone. While under anaesthesia each mouse was monitored for assessment of depth of anaesthesia (response to pain, blink reflex, skeletal muscle tone) and respiratory and cardiac function. Back skin hair was shaved from surgical area with mechanical clippers. […] Once the iodine solution was dry, a subcutaneous injection of the nonsteroidal anti-inflammatory agent meloxicam was administered. Dorsal skin was pinched gently to allow creation of a circular full-thickness wound using ear punch/biopsy punch. […] Once the bacterial suspension was dry, mice were placed into individual recovery boxes labelled with the mouse number. The time of inoculation was recorded. Initial body weights of each mouse were recorded on the appropriate score sheet. Mice recovered to full consciousness within 5 minutes. Recovered mice were returned to individual housing and monitored hourly for post-surgical or anaesthetic complications. […] Each ointment container was weighted prior to administration and the weight recorded. Each mouse was carefully restrained. […] The weight of the ointment container post-administration was recorded. […] At the end of the 7 day skin wound assessment period, all test mice were euthanased prior to wound collection for post mortem examination. The skin wound was dissected from the dorsum of each mouse. The sample was placed in a sample tube and weighed before 1 ml PBS and sterile tissue homogenisation beads were added. […]

## N=C(N/N=C/c1ccc(Cl)cc1)N/N=C/c1ccc(Cl)cc1 [NCL812, 1,3-bis[(E)-(4-chlorophenyl)methyleneamino]guanidine]
[1]; 0.5 fold the MIC
  inhibition of DNA synthesis: 40%
[1]; […] the MIC
  inhibition of DNA synthesis: no inhibition
[1]; at the MIC
  inhibition of DNA synthesis: approximately 95%
[2]; 4 fold the MIC
  inhibition of cell wall synthesis: approximately 68%
[2]; 8 fold the MIC
  inhibition of cell wall synthesis: ~52%
[3]
  inhibition of lipid synthesis: approximately 90%
Staphylococcus aureus; mice, Formulation B 20 mg/g topically every 12 hours, vehicle 6.77
  mean colony count per g of tissue, log10: 5.15 log10
Staphylococcus aureus; mice, Formulation B 20 mg/g topically every 12 hours, vehicle 5,888,436
  mean colony count per g of tissue: 141,254
Staphylococcus aureus; mouse skin wound infected with Staphylococcus aureus, topical ointment (Formulation B, 20 mg/g) every 12 hours, end of 7 day period, relative to vehicle group
  % reduction (of colony forming units per gram of tissue versus vehicle): 97.6%
Staphylococcus aureus; mouse skin wound infected with Staphylococcus aureus, topical ointment (Formulation B, 20 mg/g) every 12 hours, wound tissue at end of 7 day period, group mean
  Log10 (CFU/g): colony forming units per gram of tissue: 5.15 Log10 (CFU/g)
